As usually defined, the mass density is mass per unit of volume.

The source of these data is the NIST ThermoML archive (doi:10.1016/j.fluid.2007.09.028).

± gives the expanded uncertainty stated by the source.

The nature of series [1]: xn = mol fraction of the nth substance listed. The settings on record: 101 kPa, Liquid, x1 = 1.
The conditions of series [2]: 101 kPa, Liquid.

With `CC(C)(C)O` [2-methylpropan-2-ol] + Clc1ccccc1, the mass density in series [1] (303.15 K) was found to be 775.412 ± 0.49 kg/m3; in series [1] (308.15 K) it was 770.193 ± 0.49 kg/m3; in series [1] (313.15 K), 764.884 ± 0.5 kg/m3; in series [1] (318.15 K), 759.488 ± 0.51 kg/m3; in series [1] (323.15 K) it was 754.015 ± 0.52 kg/m3.
For `Clc1ccccc1` [chlorobenzene], the mass density in series [2] (288.15 K) worked out at 1111.81 ± 0.3 kg/m3; in series [2] (293.15 K), 1106.43 ± 0.29 kg/m3; in series [2] (298.15 K), 1101.04 ± 0.28 kg/m3; in series [2] (303.15 K) it was 1095.64 ± 0.28 kg/m3; in series [2] (308.15 K) it was 1090.23 ± 0.27 kg/m3; in series [2] (313.15 K), 1084.82 ± 0.26 kg/m3. Further, the mass density in series [2] (318.15 K) is given as 1079.42 ± 0.25 kg/m3; in series [2] (323.15 K), 1073.97 ± 0.24 kg/m3.
As to `CCCO` [propan-1-ol], the mass density in series [2] (288.15 K) is given as 807.69 ± 0.46 kg/m3; in series [2] (293.15 K), 803.703 ± 0.46 kg/m3; in series [2] (298.15 K) it was 799.692 ± 0.47 kg/m3; in series [2] (303.15 K), 795.65 ± 0.47 kg/m3; in series [2] (308.15 K), 791.576 ± 0.48 kg/m3; in series [2] (313.15 K), 787.466 ± 0.49 kg/m3.
With `CCCCCO` [pentan-1-ol], the mass density in series [2] (288.15 K) stood at 818.282 ± 0.54 kg/m3; in series [2] (293.15 K) it was 814.635 ± 0.55 kg/m3; in series [2] (298.15 K) it was 810.968 ± 0.55 kg/m3; in series [2] (303.15 K), 807.278 ± 0.55 kg/m3; in series [2] (308.15 K), 803.558 ± 0.56 kg/m3; in series [2] (313.15 K) it was 799.817 ± 0.56 kg/m3.
For `CCCCCO` [pentan-1-ol] + Clc1ccccc1, the mass density in series [1] (288.15 K) stood at 818.282 ± 0.54 kg/m3; in series [1] (293.15 K), 814.635 ± 0.55 kg/m3; in series [1] (298.15 K), 810.968 ± 0.55 kg/m3; in series [1] (303.15 K) it was 807.278 ± 0.55 kg/m3; in series [1] (308.15 K), 803.558 ± 0.56 kg/m3; in series [1] (313.15 K), 799.817 ± 0.56 kg/m3.
Take `CCCCO` [butan-1-ol]: the mass density in series [2] (288.15 K) was determined as 813.373 ± 0.45 kg/m3; in series [2] (293.15 K), 809.573 ± 0.45 kg/m3; in series [2] (298.15 K), 805.762 ± 0.46 kg/m3; in series [2] (303.15 K) it was 801.923 ± 0.47 kg/m3; in series [2] (308.15 K), 798.053 ± 0.47 kg/m3; in series [2] (313.15 K), 794.147 ± 0.48 kg/m3.
As to `CCCCO` [butan-1-ol] + Clc1ccccc1, the mass density in series [1] (288.15 K) is recorded as 813.373 ± 0.45 kg/m3; in series [1] (293.15 K), 809.573 ± 0.45 kg/m3; in series [1] (298.15 K), 805.762 ± 0.46 kg/m3; in series [1] (303.15 K) it was 801.923 ± 0.47 kg/m3; in series [1] (308.15 K) it was 798.053 ± 0.47 kg/m3; in series [1] (313.15 K), 794.147 ± 0.48 kg/m3.
On to `CC(C)(C)O` [2-methylpropan-2-ol], for which the mass density was 775.412 ± 0.49 kg/m3 in series [2] (303.15 K); 770.193 ± 0.49 kg/m3 in series [2] (308.15 K); 764.884 ± 0.5 kg/m3 in series [2] (313.15 K); 759.488 ± 0.51 kg/m3 in series [2] (318.15 K); 754.015 ± 0.52 kg/m3 in series [2] (323.15 K).
For the compound `CCCO` [propan-1-ol] + Clc1ccccc1, the mass density in series [1] (288.15 K) was determined as 807.69 ± 0.46 kg/m3; in series [1] (293.15 K) it was 803.703 ± 0.46 kg/m3; in series [1] (298.15 K), 799.692 ± 0.47 kg/m3; in series [1] (303.15 K), 795.65 ± 0.47 kg/m3; in series [1] (308.15 K), 791.576 ± 0.48 kg/m3; in series [1] (313.15 K), 787.466 ± 0.49 kg/m3.
`CCC(C)O` (stereo unspecified) [butan-2-ol] + Clc1ccccc1: the mass density in series [1] (288.15 K) is 810.689 ± 0.55 kg/m3; in series [1] (293.15 K) it was 806.646 ± 0.56 kg/m3; in series [1] (298.15 K) it was 802.528 ± 0.56 kg/m3; in series [1] (303.15 K), 798.326 ± 0.56 kg/m3; in series [1] (308.15 K), 794.03 ± 0.57 kg/m3; in series [1] (313.15 K), 789.632 ± 0.58 kg/m3.
As for `CCC(C)O` (stereo unspecified) [butan-2-ol], the mass density is on record as 810.689 ± 0.55 kg/m3 in series [2] (288.15 K); 806.646 ± 0.56 kg/m3 in series [2] (293.15 K); 802.528 ± 0.56 kg/m3 in series [2] (298.15 K); 798.326 ± 0.56 kg/m3 in series [2] (303.15 K); 794.03 ± 0.57 kg/m3 in series [2] (308.15 K); 789.632 ± 0.58 kg/m3 in series [2] (313.15 K).
